Assay results: patent US9982005B2, “Macrolides and methods of their preparation and use” (President and Fellows of Harvard College, priority 2013, dated 2018)
Converted amounts (≈) assume the structure as drawn. Read-outs that look alike come from different tables or passages of the source.

What was measured:
Assay type in all cases: cell-based
[1] = tested on: E. coli strains; test: MIC against E. coli strains (Table M7); conditions: for MIC: Escherichia coli, ATCC25922, E. coli ATCC 25922
Excerpt: (§1) We have collected MIC data for a total of 50 novel macrolides that this platform has produced against over 21 unique strains of B. subtilis, E. coli, S. aureus, S. pneumoniae, and H. influenzae, including several multidrug-resistant strains, with a special focus on macrolide resistant mechanisms (vide supra). Azithromycin was included as a control macrolide. CLSI standard procedures for broth dilution MIC determination were used. […] These genotypes can be constitutive or inducible. The finding that C4-epi (unnatural) isomers of the “azaketolide” macrolide class have enhanced activities relative to C4 natural isomers is very exciting.

[2] = tested on: S. aureus strains; test: MIC against S. aureus strains (Table M7); conditions: for MIC: Staphylococcus aureus
Excerpt: as §1

[3] = tested on: S. pneumoniae strains; test: MIC against S. pneumoniae strains (Tables M7, M8); conditions: for MIC: Streptococcus pneumoniae
Excerpt: CLSI standard procedures for broth dilution MIC determination were used. […] These genotypes can be constitutive or inducible.

[4] = tested on: E. faecalis strains; test: MIC against E. faecalis strains (Table M8); conditions: for MIC: Enterococcus faecalis, E. faecalis 29212
[5] = tested on: A. baumannii strains; test: MIC against A. baumannii strains (Table M8); conditions: for MIC: Acinetobacter baumannii, BAA747, A. baumannii BAA747-1
[6] = tested on: K. pneumoniae strains; test: MIC against K. pneumoniae strains (Table M8); conditions: for MIC: Klebsiella pneumoniae, K. pneumoniae 10031
[7] = tested on: H. influenzae strains; test: MIC against H. influenzae strains (Table M8); conditions: for MIC: Haemophilus influenzae
Excerpt: as §1

[8] = ATCC29213, S. aureus ATCC 29213, read-out: MIC S. aureus (ATCC 29213)
[9] = S. aureus 183, read-out: MIC S. aureus (183)
[10] = S. aureus 506, read-out: MIC S. aureus (506)
[11] = S. aureus 1708, read-out: MIC S. aureus (1708)
[12] = USA300, S. aureus USA300, read-out: MIC S. aureus (USA300)
[13] = S. pneumoniae 160, read-out: MIC S. pneumonae (160)
[14] = S. pneumoniae 1509, read-out: MIC S. pneumoniae (1509)
[15] = S. pneumoniae 1533, read-out: MIC S. pneumoniae (1533)
[16] = S. pneumoniae 1537, read-out: MIC S. pneumoniae (1537)
[17] = H. influenzae 49247, read-out: MIC H. influenzae (49247)
[18] = H. influenzae 49766, read-out: MIC H. influenzae (49766)
[19] = S. pneumoniae 49619, read-out: MIC S. pneumoniae (49619)

SMILES	MIC E. coli (ATCC 25922) [1] [µg/mL]	MIC S. aureus (183) ([2]; S. aureus 183) [µg/mL]	MIC S. aureus (506) ([2]; S. aureus 506) [µg/mL]	MIC S. pneumoniae (49619) ([3]; S. pneumoniae 49619) [µg/mL]	MIC [1] [µg/mL]	MIC [2, 8] [µg/mL]	MIC [2, 9] [µg/mL]	MIC [2, 10] [µg/mL]	MIC [2, 11] [µg/mL]	MIC [2, 12] [µg/mL]	MIC [3, 13] [µg/mL]	MIC [3, 14] [µg/mL]	MIC [3, 15] [µg/mL]	MIC [3, 16] [µg/mL]	MIC [4] [µg/mL]	MIC [5] [µg/mL]	MIC [6] [µg/mL]	MIC [7, 17] [µg/mL]	MIC [7, 18] [µg/mL]	MIC [3, 19] [µg/mL]	also measured
CCC1OC(=O)C(Cc2cn[nH]c2)C(=O)C(C)C(OC2OC(C)CC(N(C)C)C2O)C(C)(OCC=Cc2cnc3ccccc3c2)CC(C)CNC(C)C2NC(=O)OC12C (mixture of isomers) [FSM-21264]	>32	>32	>32	2																	MIC S. aureus (1708) ([2]; S. aureus 1708): >32 µg/mL; MIC S. aureus (ATCC 29213) [2]: >32 µg/mL; MIC S. aureus (USA300) [2]: >32 µg/mL; MIC S. pneumonae (160) ([3]; S. pneumoniae 160): 4 µg/mL; MIC S. pneumoniae (1509) ([3]; S. pneumoniae 1509): >32 µg/mL; MIC S. pneumoniae (1533) ([3]; S. pneumoniae 1533): >32 µg/mL; MIC S. pneumoniae (1537) ([3]; S. pneumoniae 1537): >32 µg/mL; MIC E. faecalis (29212) [4]: >32 µg/mL; MIC A. baumannii (BAA747-1) [5]: >32 µg/mL; MIC K. pneumoniae (10031) [6]: >32 µg/mL; MIC H. influenzae (49247) ([7]; H. influenzae 49247): 8 µg/mL; MIC H. influenzae (49766) ([7]; H. influenzae 49766): >32 µg/mL
CC[C@H]1OC(=O)[C@H](C)C(=O)[C@H](C)[C@@H](O[C@@H]2OC(C)CC(N(C)C)C2O)[C@](C)(OC)CC(C)N[C@H](C)[C@H]2N(CCCCn3cc(-c4cccc(N)c4)nn3)C(=O)O[C@]12C (single isomer, unassigned) [FSM-30689]				8 (≈ 9.83 µM)	> 32	> 32	> 32	> 32	> 32	> 32	16 (≈ 19.7 µM)	16 (≈ 19.7 µM)	> 32	> 32	32 (≈ 39.3 µM)	> 32	> 32	16 (≈ 19.7 µM)	> 32		
C=CC[C@@]1(OC)C[C@@H](C)CN[C@H](C)[C@H]2N(CCCCn3cc(-c4cccc(N)c4)nn3)C(=O)O[C@]2(C)[C@@H](CC)OC(=O)[C@H](C)C(=O)[C@@H](C)[C@H]1O[C@@H]1OC(C)CC(N(C)C)C1O (stereo in doubt) [FSM-21368]	8 (≈ 9.37 µM)	>32	>32	1 (≈ 1.17 µM)																	MIC S. aureus (1708) ([2]; S. aureus 1708): 16 µg/mL (≈ 18.7 µM); MIC S. aureus (ATCC 29213) [2]: 8 µg/mL (≈ 9.37 µM); MIC S. aureus (USA300) [2]: 8 µg/mL (≈ 9.37 µM); MIC S. pneumonae (160) ([3]; S. pneumoniae 160): 0.25 µg/mL (≈ 0.293 µM); MIC S. pneumoniae (1509) ([3]; S. pneumoniae 1509): 8 µg/mL (≈ 9.37 µM); MIC S. pneumoniae (1533) ([3]; S. pneumoniae 1533): >32 µg/mL; MIC S. pneumoniae (1537) ([3]; S. pneumoniae 1537): >32 µg/mL; MIC E. faecalis (29212) [4]: 2 µg/mL (≈ 2.34 µM); MIC A. baumannii (BAA747-1) [5]: 16 µg/mL (≈ 18.7 µM); MIC K. pneumoniae (10031) [6]: 4 µg/mL (≈ 4.68 µM); MIC H. influenzae (49247) ([7]; H. influenzae 49247): 2 µg/mL (≈ 2.34 µM); MIC H. influenzae (49766) ([7]; H. influenzae 49766): 8 µg/mL (≈ 9.37 µM)
CC[C@H]1OC(=O)[C@H](C)C(=O)[C@H](C)[C@@H](O[C@@H]2OC(C)CC(N(C)C)C2O)[C@](C)(OC)C[C@@H](C)CN[C@H](CCN(C)C)[C@H]2N(CCCCn3cc(-c4cccc(N)c4)nn3)C(=O)O[C@]12C (stereo partly drawn) [FSM-11052]					> 32	8 (≈ 9.04 µM)	> 32	> 32	4 (≈ 4.52 µM)	32 (≈ 36.2 µM)	0.5 (≈ 0.565 µM)	0.5 (≈ 0.565 µM)	> 32	> 32	2 (≈ 2.26 µM)	> 32	16 (≈ 18.1 µM)	8 (≈ 9.04 µM)	32 (≈ 36.2 µM)	0.125 (≈ 0.141 µM)	

Further lines, with some results ahead:

MIC E. coli (ATCC 25922) [1] [µg/mL]	MIC S. aureus (183) ([2]; S. aureus 183) [µg/mL]	MIC S. aureus (506) ([2]; S. aureus 506) [µg/mL]	MIC S. pneumoniae (49619) ([3]; S. pneumoniae 49619) [µg/mL]	MIC [1] [µg/mL]	MIC [2, 8] [µg/mL]	MIC [2, 9] [µg/mL]	MIC [2, 10] [µg/mL]	MIC [2, 11] [µg/mL]	MIC [2, 12] [µg/mL]	MIC [3, 13] [µg/mL]	MIC [3, 14] [µg/mL]	MIC [3, 15] [µg/mL]	MIC [3, 16] [µg/mL]	MIC [4] [µg/mL]	MIC [5] [µg/mL]	MIC [6] [µg/mL]	MIC [7, 17] [µg/mL]	MIC [7, 18] [µg/mL]	MIC [3, 19] [µg/mL]	SMILES	also measured
				16 (≈ 19.7 µM)	2 (≈ 2.46 µM)	> 32	> 32	1 (≈ 1.23 µM)	4 (≈ 4.91 µM)	0.25 (≈ 0.307 µM)	1 (≈ 1.23 µM)	> 32	> 32	0.25 (≈ 0.307 µM)	16 (≈ 19.7 µM)	4 (≈ 4.91 µM)	2 (≈ 2.46 µM)	4 (≈ 4.91 µM)	0.25 (≈ 0.307 µM)	CC[C@H]1OC(=O)[C@H](C)C(=O)[C@H](C)[C@@H](O[C@@H]2OC(C)CC(N(C)C)C2O)[C@](C)(OC)C[C@@H](C)CNC[C@H]2N(CCCCn3cc(-c4cccc(N)c4)nn3)C(=O)O[C@]12C (stereo partly drawn) [FSM-11031]	
				32 (≈ 37.5 µM)	1 (≈ 1.17 µM)	> 32	> 32	1 (≈ 1.17 µM)	1 (≈ 1.17 µM)	0.125 (≈ 0.146 µM)	1 (≈ 1.17 µM)	> 32	> 32	0.25 (≈ 0.293 µM)	32 (≈ 37.5 µM)	8 (≈ 9.37 µM)	2 (≈ 2.34 µM)	8 (≈ 9.37 µM)	0.125 (≈ 0.146 µM)	C=CC[C@H]1NC[C@H](C)C[C@@](C)(OC)[C@H](O[C@@H]2OC(C)CC(N(C)C)C2O)[C@@H](C)C(=O)[C@@H](C)C(=O)O[C@H](CC)[C@@]2(C)OC(=O)N(CCCCn3cc(-c4cccc(N)c4)nn3)[C@H]12 (stereo partly drawn) [FSM-11044]	
